Assay results taken from patent US20070292908A1, “Method for Detecting Streptococcus Agalactiae Using Alpha-Glucosidase Activity” (BIOMERIEUX, priority 2004, published 2007).

Columns and labels:
Streptococcus agalactiae [1] = test: Number of strains detected as a function of the concentration of α-glucosidase substrate; type: cell-based; conditions: positive when I≧0.6, 8 strains
Description: The above protocol was repeated, with the exception that the concentration of enzymatic substrate was varied.
Table 2 below gives the number of strains detected (considered to be positive when I≧0.6) as a function of the concentration of substrate.

Streptococcus agalactiae [2] = test: Detection of Streptococcus agalactiae strains on reaction media containing an α-glucosidase enzymatic substrate; type: cell-based; conditions: substrate 0.1 g/l; for intensity (I) of coloration: arbitrary scale 0 to 4
Protocol: The reaction media were prepared by mixing heart-brain extract (4.84 g/l; Solabia), meat infusion (1.96 g/l; Solabia), biothione (1 g/l; Solabia), biotrypcase (7.2 g/l; Solabia), sodium carbonate (0.3 g/l; VWR), sodium pyruvate (2 g/l; Fluka), HEPES buffer (0.4 g/l; Sigma), lactalbumin peptone (2 g/l; DMV), glucose (1 g/l; Merck), American agar (2 g/l; Sobigel) and European agar (12 g/l; Roko).
The media were then poured into a Petri dish for subsequent inoculation with bacterial strains.
Eight Streptococcus agalactiae strains derived from the applicant's collection, suspended in physiological saline, were inoculated so as to give isolated colonies on each of the media. The dishes were then incubated at 37° C. for 48 hours. The colonies formed are examined visually after 18, 24 and more than 40 hours of incubation. The coloration of these colonies, the growth and also the intensity of this coloration were noted.
The results are given in table 1 below and are expressed: • in terms of growth (G) with the size being indicated in mm, • in terms of intensity (1) of coloration based on an arbitrary scale ranging from 0 to 4, 0 corresponding to an absence of activity and 4 corresponding to the presence of a very intense coloration, • in terms of color (Co) with T=turquoise, R=pink or red, Gr=green, Mg=magenta, • according to the incubation time in hours (T).

[3] = substrate 100 mg/l, incubation 24 h
[4] = substrate 100 mg/l, incubation 48 h
[5] = substrate 200 mg/l, incubation 24 h
[6] = substrate 200 mg/l, incubation 48 h
[7] = substrate 300 mg/l, incubation 24 h
[8] = substrate 300 mg/l, incubation 48 h
[9] = strain 0008200, 18 h incubation
[10] = strain 0008200, 24 h incubation
[11] = strain 0008200, >40 h incubation
[12] = strain 0008206, 18 h incubation
[13] = strain 0008206, 24 h incubation
[14] = strain 0008206, >40 h incubation
[15] = strain 0101060, 18 h incubation
[16] = strain 0101060, 24 h incubation
[17] = strain 0101060, >40 h incubation
[18] = strain 7611003, 18 h incubation
[19] = strain 7611003, 24 h incubation
[20] = strain 7611003, >40 h incubation
[21] = strain 7701031, 18 h incubation
[22] = strain 7701031, 24 h incubation
[23] = strain 7701031, >40 h incubation
[24] = strain 7702055, 18 h incubation
[25] = strain 7702055, 24 h incubation
[26] = strain 7702055, >40 h incubation
[27] = strain 8709013, 18 h incubation
[28] = strain 8709013, 24 h incubation
[29] = strain 8709013, >40 h incubation
[30] = strain 8904053, 18 h incubation
[31] = strain 8904053, 24 h incubation
[32] = strain 8904053, >40 h incubation

In the case of OC[C@H]1O[C@H](Oc2c[nH]c3cc(Br)ccc23)[C@H](O)[C@@H](O)[C@@H]1O [RedA-alpha-Glu, 6-bromo-3-indolyl-α-D-glucopyranoside], the “number of strains detected” value (Streptococcus agalactiae [1]; [3]) is reported as 1/8, the “number of strains detected” value (Streptococcus agalactiae [1]; [4]) is reported as 7/8 and the “number of strains detected” value (Streptococcus agalactiae [1]; [5]) is reported as 5/8. The “number of strains detected” value (Streptococcus agalactiae [1]; [6]) was 8/8, the “number of strains detected” value (Streptococcus agalactiae [1]; [7]) was 6/8 and the “number of strains detected” value (Streptococcus agalactiae [1]; [8]) was 8/8. For the same compound, the “intensity (I) of coloration” value (Streptococcus agalactiae [2]; strain 0008200, 18 h) was 0.1, the “growth (G), size” value (Streptococcus agalactiae [2]; [9]) was 0.7 mm and the “intensity (I) of coloration” value (Streptococcus agalactiae [2]; strain 0008200, 24 h) was 0.3. The “growth (G), size” value (Streptococcus agalactiae [2]; [10]) was 0.7 mm, the “intensity (I) of coloration” value (Streptococcus agalactiae [2]; strain 0008200, >40 h) was 1.7 and the “growth (G), size” value (Streptococcus agalactiae [2]; [11]) was 0.7 mm. The “intensity (I) of coloration” value (Streptococcus agalactiae [2]; strain 0008206, 18 h) was 0.3, the “growth (G), size” value (Streptococcus agalactiae [2]; [12]) was 0.7 mm and the “intensity (I) of coloration” value (Streptococcus agalactiae [2]; strain 0008206, 24 h) was 0.5. The “growth (G), size” value (Streptococcus agalactiae [2]; [13]) was 0.8 mm, the “intensity (I) of coloration” value (Streptococcus agalactiae [2]; strain 0008206, >40 h) was 2 and the “growth (G), size” value (Streptococcus agalactiae [2]; [14]) was 1.2 mm. For the same compound, the “intensity (I) of coloration” value (Streptococcus agalactiae [2]; strain 0101060, 18 h) was 0.5, the “growth (G), size” value (Streptococcus agalactiae [2]; [15]) was 0.4 mm and the “intensity (I) of coloration” value (Streptococcus agalactiae [2]; strain 0101060, 24 h) was 0.8. For the same compound, the “growth (G), size” value (Streptococcus agalactiae [2]; [16]) was 0.5 mm, the “intensity (I) of coloration” value (Streptococcus agalactiae [2]; strain 0101060, >40 h) was 3 and the “growth (G), size” value (Streptococcus agalactiae [2]; [17]) was 0.7 mm. The “intensity (I) of coloration” value (Streptococcus agalactiae [2]; strain 7611003, 18 h) was 0.5, the “growth (G), size” value (Streptococcus agalactiae [2]; [18]) was 1 mm and the “intensity (I) of coloration” value (Streptococcus agalactiae [2]; strain 7611003, 24 h) was 0.8. The “growth (G), size” value (Streptococcus agalactiae [2]; [19]) was 1 mm, the “intensity (I) of coloration” value (Streptococcus agalactiae [2]; strain 7611003, >40 h) was 2 and the “growth (G), size” value (Streptococcus agalactiae [2]; [20]) was 1.3 mm. The “growth (G), size” value (Streptococcus agalactiae [2]; [21]) was 0.5 mm, the “growth (G), size” value (Streptococcus agalactiae [2]; [22]) was 0.7 mm and the “intensity (I) of coloration” value (Streptococcus agalactiae [2]; strain 7701031, >40 h) was 0.5. The “growth (G), size” value (Streptococcus agalactiae [2]; [23]) was 1.2 mm, the “growth (G), size” value (Streptococcus agalactiae [2]; [24]) was 0.7 mm and the “intensity (I) of coloration” value (Streptococcus agalactiae [2]; strain 7702055, 24 h) was 0.3. The “growth (G), size” value (Streptococcus agalactiae [2]; [25]) was 1 mm, the “intensity (I) of coloration” value (Streptococcus agalactiae [2]; strain 7702055, >40 h) was 2.3 and the “growth (G), size” value (Streptococcus agalactiae [2]; [26]) was 1.7 mm. For the same compound, the “growth (G), size” value (Streptococcus agalactiae [2]; [27]) was 0.5 mm, the “growth (G), size” value (Streptococcus agalactiae [2]; [28]) was 0.5 mm and the “intensity (I) of coloration” value (Streptococcus agalactiae [2]; strain 8709013, >40 h) was 0.8. The “growth (G), size” value (Streptococcus agalactiae [2]; [29]) was 0.7 mm, the “growth (G), size” value (Streptococcus agalactiae [2]; [30]) was 0.7 mm and the “intensity (I) of coloration” value (Streptococcus agalactiae [2]; strain 8904053, 24 h) was 0.3. The “growth (G), size” value (Streptococcus agalactiae [2]; [31]) was 0.7 mm, the “intensity (I) of coloration” value (Streptococcus agalactiae [2]; strain 8904053, >40 h) was 1.7 and the “growth (G), size” value (Streptococcus agalactiae [2]; [32]) was 0.8 mm.
In the case of OC[C@H]1O[C@H](Oc2c[nH]c3cc(Cl)ccc23)[C@H](O)[C@@H](O)[C@@H]1O [Rose-alpha-Glu, 6-chloro-3-indolyl-α-D-glucopyranoside], the “number of strains detected” value (Streptococcus agalactiae [1]; [3]) is reported as 1/8, the “number of strains detected” value (Streptococcus agalactiae [1]; [4]) is reported as 7/8 and the “number of strains detected” value (Streptococcus agalactiae [1]; [5]) is reported as 3/8. For the same compound, the “number of strains detected” value (Streptococcus agalactiae [1]; [6]) was 8/8, the “number of strains detected” value (Streptococcus agalactiae [1]; [7]) was 6/8 and the “number of strains detected” value (Streptococcus agalactiae [1]; [8]) was 8/8. For the same compound, the “intensity (I) of coloration” value (Streptococcus agalactiae [2]; strain 0008200, 18 h) was 0.1, the “growth (G), size” value (Streptococcus agalactiae [2]; [9]) was 0.5 mm and the “intensity (I) of coloration” value (Streptococcus agalactiae [2]; strain 0008200, 24 h) was 0.3. For the same compound, the “growth (G), size” value (Streptococcus agalactiae [2]; [10]) was 0.5 mm, the “intensity (I) of coloration” value (Streptococcus agalactiae [2]; strain 0008200, >40 h) was 0.5 and the “growth (G), size” value (Streptococcus agalactiae [2]; [11]) was 0.5 mm. For the same compound, the “intensity (I) of coloration” value (Streptococcus agalactiae [2]; strain 0008206, 18 h) was 0.1, the “growth (G), size” value (Streptococcus agalactiae [2]; [12]) was 0.7 mm and the “intensity (I) of coloration” value (Streptococcus agalactiae [2]; strain 0008206, 24 h) was 0.3. For the same compound, the “growth (G), size” value (Streptococcus agalactiae [2]; [13]) was 0.8 mm, the “intensity (I) of coloration” value (Streptococcus agalactiae [2]; strain 0008206, >40 h) was 0.8 and the “growth (G), size” value (Streptococcus agalactiae [2]; [14]) was 1.2 mm. For the same compound, the “intensity (I) of coloration” value (Streptococcus agalactiae [2]; strain 0101060, 18 h) was 0.3, the “growth (G), size” value (Streptococcus agalactiae [2]; [15]) was 0.5 mm and the “intensity (I) of coloration” value (Streptococcus agalactiae [2]; strain 0101060, 24 h) was 0.6. For the same compound, the “growth (G), size” value (Streptococcus agalactiae [2]; [16]) was 0.7 mm, the “intensity (I) of coloration” value (Streptococcus agalactiae [2]; strain 0101060, >40 h) was 2.3 and the “growth (G), size” value (Streptococcus agalactiae [2]; [17]) was 0.8 mm. The “intensity (I) of coloration” value (Streptococcus agalactiae [2]; strain 7611003, 18 h) was 0.3, the “growth (G), size” value (Streptococcus agalactiae [2]; [18]) was 1 mm and the “intensity (I) of coloration” value (Streptococcus agalactiae [2]; strain 7611003, 24 h) was 0.6. The “growth (G), size” value (Streptococcus agalactiae [2]; [19]) was 1.3 mm, the “intensity (I) of coloration” value (Streptococcus agalactiae [2]; strain 7611003, >40 h) was 1.3 and the “growth (G), size” value (Streptococcus agalactiae [2]; [20]) was 1.7 mm. The “growth (G), size” value (Streptococcus agalactiae [2]; [21]) was 0.5 mm, the “growth (G), size” value (Streptococcus agalactiae [2]; [22]) was 0.7 mm and the “intensity (I) of coloration” value (Streptococcus agalactiae [2]; strain 7701031, >40 h) was 0.5. The “growth (G), size” value (Streptococcus agalactiae [2]; [23]) was 1.2 mm, the “intensity (I) of coloration” value (Streptococcus agalactiae [2]; strain 7702055, 18 h) was 0.1 and the “growth (G), size” value (Streptococcus agalactiae [2]; [24]) was 0.7 mm. For the same compound, the “intensity (I) of coloration” value (Streptococcus agalactiae [2]; strain 7702055, 24 h) was 0.1, the “growth (G), size” value (Streptococcus agalactiae [2]; [25]) was 1 mm and the “intensity (I) of coloration” value (Streptococcus agalactiae [2]; strain 7702055, >40 h) was 1. The “growth (G), size” value (Streptococcus agalactiae [2]; [26]) was 1.7 mm, the “growth (G), size” value (Streptococcus agalactiae [2]; [27]) was 0.4 mm and the “growth (G), size” value (Streptococcus agalactiae [2]; [28]) was 0.5 mm. The “intensity (I) of coloration” value (Streptococcus agalactiae [2]; strain 8709013, >40 h) was 0.5, the “growth (G), size” value (Streptococcus agalactiae [2]; [29]) was 0.7 mm and the “intensity (I) of coloration” value (Streptococcus agalactiae [2]; strain 8904053, 18 h) was 0.1. The “growth (G), size” value (Streptococcus agalactiae [2]; [30]) was 0.7 mm, the “intensity (I) of coloration” value (Streptococcus agalactiae [2]; strain 8904053, 24 h) was 0.3 and the “growth (G), size” value (Streptococcus agalactiae [2]; [31]) was 0.7 mm. For the same compound, the “intensity (I) of coloration” value (Streptococcus agalactiae [2]; strain 8904053, >40 h) was 1 and the “growth (G), size” value (Streptococcus agalactiae [2]; [32]) was 0.8 mm.
